Measurements: ChEMBL document CHEMBL1157369, “Inhibition of type III secretion in Salmonella enterica serovar Typhimurium by small-molecule inhibitors” (Antimicrob Agents Chemother, 2007)
Activity calls are given as the source filed them. The rule behind the calls is not given here.

Key:
[1] = tested on: Salmonella enterica subsp. enterica serovar Typhimurium; assay: Inhibition of T3SS-1-mediated secretion of SipA protein in Salmonella enterica serovar Typhimurium 4/74 at 100 uM after 4 hrs by SDS-PAGE
[2] = tested on: Salmonella enterica subsp. enterica serovar Typhimurium; assay: Inhibition of T3SS-1-mediated secretion of SipC protein in Salmonella enterica serovar Typhimurium 4/74 at 100 uM after 4 hrs by SDS-PAGE
[3] = tested on: Salmonella enterica subsp. enterica serovar Typhimurium; assay: Inhibition of T3SS-1-mediated secretion of SopE protein in Salmonella enterica serovar Typhimurium 4/74 at 100 uM after 4 hrs by SDS-PAGE
[4] = tested on: Salmonella typhimurium; assay: Effect on viability of Salmonella enterica serovar Typhimurium 4/74 at 100 uM after 4 hrs; format: functional, organism-based; conditions: Salmonella enterica subsp. enterica serovar Typhimurium
[5] = tested on: Salmonella enterica subsp. enterica serovar Typhimurium; assay: Inhibition of T3SS-1-mediated secretion of SipA protein in Salmonella enterica serovar Typhimurium 4/74 after 4 hrs by SDS-PAGE
[6] = tested on: Salmonella enterica subsp. enterica serovar Typhimurium; assay: Inhibition of T3SS-1-mediated secretion of SipC protein in Salmonella enterica serovar Typhimurium 4/74 after 4 hrs by SDS-PAGE
[7] = tested on: Salmonella enterica subsp. enterica serovar Typhimurium; assay: Inhibition of T3SS-1-mediated secretion of SopE protein in Salmonella enterica serovar Typhimurium 4/74 after 4 hrs by SDS-PAGE
[8] = tested on: HeLa; assay: Toxicity against human HeLa cells at 0.1 to 10 uM after 3 hrs; format: cell-based
[9] = tested on: Salmonella enterica subsp. enterica serovar Typhimurium; assay: Inhibition of T3SS-1 associated virulence phenotype in 1.5 hrs 100 uM pretreated Salmonella enterica serovar Typhimurium 4/74 assessed as reduction of contact dependent hemolysis of sheep erythrocytes relative to wild-type
[10] = tested on: Salmonella typhimurium; assay: Reduction of Salmonella enterica serovar Typhimurium 4/74 invasion of human HeLa cells preincubated at 100 uM for 1 hr relative to control; format: functional, Salmonella enterica subsp. enterica serovar Typhimurium; parameters: scale not given: the % may be the effect or the level left
[11] = tested on: Salmonella typhimurium; assay: Suppression of 1.5 hrs 100 uM pretreated Salmonella enterica serovar Typhimurium 4/74 infection-induced intestinal secretory response in Friesian bull intestinal ligated loop model; format: functional, organism-based; conditions: Salmonella enterica subsp. enterica serovar Typhimurium
[12] = tested on: Salmonella typhimurium; assay: Suppression of 1.5 hrs 100 uM pretreated Salmonella enterica serovar Typhimurium 4/74 infection-induced inflammatory response in Friesian bull intestinal ligated loop model assessed as polymorphonuclear leucocyte influx; format: functional, organism-based; conditions: Salmonella enterica subsp. enterica serovar Typhimurium
[13] = tested on: Salmonella typhimurium; assay: Suppression of Salmonella enterica serovar Typhimurium 4/74 infection-induced intestinal secretory response in Friesian bull intestinal ligated loop model at 100 uM coadministered with bacterial challenge; format: functional, organism-based; conditions: Salmonella enterica subsp. enterica serovar Typhimurium
[14] = tested on: Salmonella typhimurium; assay: Suppression of Salmonella enterica serovar Typhimurium 4/74 infection-induced inflammatory response in Friesian bull intestinal ligated loop model assessed as polymorphonuclear leucocyte influx at 100 uM coadministered with bacterial challenge; format: functional, organism-based; conditions: Salmonella enterica subsp. enterica serovar Typhimurium

Row | Compound | Activity [1] | Activity [2] | Activity [3] | Activity [4] | Activity [5] | %max [6] | Activity [7] | Activity [8] | Activity [9] | Activity [10] | Activity [11] | Activity [12] | Activity [13] | Activity [14]
1 | O=C(N/N=C/c1cc(Br)cc(Br)c1O)c1ccc([N+](=O)[O-])cc1 | Active | Active | Active | inactive | Dose-dependent effect | Dose-dependent effect | Dose-dependent effect | Non-toxic | Active | 47% | Active | Active | inactive | inactive
2 | O=C(N/N=C/c1cc(Cl)cc(Cl)c1O)c1ccccc1 | Active | Active | Active | inactive | Dose-dependent effect | Dose-dependent effect | Dose-dependent effect | Non-toxic | Active | 60% | Active | Active | inactive | inactive
